Measurements taken from patent US7713994B2 (Wyeth LLC, priority 2005, dated 2010).

What was measured:
cyclin E/CDK2 enzyme = biological target: T1, cyclin E/CDK2 enzyme (Homo sapiens, UniProt P24941); assay: CDK2 ELISA kinase assay (phospho-Rb ser 795 detection); type: biochemical; conditions: In Vitro Enzyme Assay, cyclin E/CDK2, read-out: CDK2 IC50
T1 construct: made in house; host or cells: Sf9 insect cells, recombinant baculovirus
Summary of the method: (§1)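 ELISA format: plate-bound GST-Rb, 200 μM ATP, Sf9 cyclin/CDK enzyme, 1 h at 30° C; then anti-pRb Ser795 primary overnight at 4° C, HRP secondary, TMB. IC50 after no-substrate background subtraction.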

HCT-116 = assay: Cytotoxicity assay (SRB), HCT-116; type: cell-based; conditions: Homo sapiens, HCT-116, 72 h, HCT116 cells, 3 days, SRB; read-out: In Vitro Cellular Activity IC50 HCT116
Summary of the method: (§2)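 Cells grown in RPMI 1640 with 5% FBS were treated with compound for three days (HCT-116, LoVo, MCF-7) or six days (BT474). Viable cell mass was quantified by sulforhodamine B staining of TCA-fixed protein and read at 540 nm.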

MCF-7 = assay: Cytotoxicity assay (SRB), MCF-7; type: cell-based; conditions: Homo sapiens, MCF7, 72 h, MCF-7 cells, 3 days, SRB; read-out: In Vitro Cellular Activity IC50 MCF-7
Summary of the method: as §2

cyclin D1/cdk 4 enzyme = biological target: T2, cyclin D1/cdk 4 enzyme (Homo sapiens, UniProt P11802); assay: CDK4 ELISA kinase assay (phospho-Rb ser 795 detection); type: biochemical; conditions: In Vitro Enzyme Assay, cyclin D1/cdk 4, read-out: CDK4 IC50
T2 construct: made in house; host or cells: Sf9 insect cells, recombinant baculovirus
T2 sequence (P11802 whole entry, species assumed): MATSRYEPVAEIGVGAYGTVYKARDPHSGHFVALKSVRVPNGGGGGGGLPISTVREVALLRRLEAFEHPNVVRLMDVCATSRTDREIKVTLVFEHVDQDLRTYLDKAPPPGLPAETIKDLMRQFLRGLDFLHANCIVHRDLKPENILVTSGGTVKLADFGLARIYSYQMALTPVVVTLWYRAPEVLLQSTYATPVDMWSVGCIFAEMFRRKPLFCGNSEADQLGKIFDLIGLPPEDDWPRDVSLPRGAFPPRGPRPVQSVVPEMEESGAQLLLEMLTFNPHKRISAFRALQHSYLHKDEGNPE
T2 sequence (P24385 whole entry partner, species assumed): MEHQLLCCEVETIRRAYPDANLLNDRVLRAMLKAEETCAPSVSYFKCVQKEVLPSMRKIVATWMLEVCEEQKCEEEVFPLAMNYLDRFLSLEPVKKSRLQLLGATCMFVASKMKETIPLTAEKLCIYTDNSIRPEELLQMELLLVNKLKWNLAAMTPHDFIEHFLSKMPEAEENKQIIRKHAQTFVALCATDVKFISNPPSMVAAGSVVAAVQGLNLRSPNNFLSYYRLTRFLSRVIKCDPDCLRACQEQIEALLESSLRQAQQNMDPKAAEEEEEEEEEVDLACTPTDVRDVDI
Summary of the method: as §1

LoVo = assay: Cytotoxicity assay (SRB), LoVo; type: cell-based; conditions: Homo sapiens, LoVo, 72 h, LoVo cells, 3 days, SRB; read-out: In Vitro Cellular Activity IC50 LOVO
Summary of the method: as §2

BT474 = assay: Cytotoxicity assay (SRB), BT474; type: cell-based; conditions: Homo sapiens, BT-474, 144 h, BT474 cells, 6 days, SRB; read-out: In Vitro Cellular Activity IC50 BT474
Summary of the method: as §2

cyclin B/CDK1 enzyme = biological target: T3, cyclin B/CDK1 enzyme (Homo sapiens, UniProt P06493); assay: CDK1 ELISA kinase assay (phospho-Rb ser 795 detection); type: biochemical; conditions: In Vitro Enzyme Assay, cyclin B/CDK1, read-out: CDK1 IC50
T3 construct: purchased New England BioLabs; host or cells: Sf9 insect cells, recombinant baculovirus
T3 sequence (P06493 whole entry): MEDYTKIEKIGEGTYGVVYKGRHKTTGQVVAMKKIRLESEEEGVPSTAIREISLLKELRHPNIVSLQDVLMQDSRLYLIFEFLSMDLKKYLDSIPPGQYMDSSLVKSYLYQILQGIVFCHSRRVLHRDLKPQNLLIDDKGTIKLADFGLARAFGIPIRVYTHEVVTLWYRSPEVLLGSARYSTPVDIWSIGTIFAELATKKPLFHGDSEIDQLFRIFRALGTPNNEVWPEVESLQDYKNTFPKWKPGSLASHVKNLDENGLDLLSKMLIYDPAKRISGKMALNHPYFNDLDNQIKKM
T3 sequence (P14635 whole entry partner): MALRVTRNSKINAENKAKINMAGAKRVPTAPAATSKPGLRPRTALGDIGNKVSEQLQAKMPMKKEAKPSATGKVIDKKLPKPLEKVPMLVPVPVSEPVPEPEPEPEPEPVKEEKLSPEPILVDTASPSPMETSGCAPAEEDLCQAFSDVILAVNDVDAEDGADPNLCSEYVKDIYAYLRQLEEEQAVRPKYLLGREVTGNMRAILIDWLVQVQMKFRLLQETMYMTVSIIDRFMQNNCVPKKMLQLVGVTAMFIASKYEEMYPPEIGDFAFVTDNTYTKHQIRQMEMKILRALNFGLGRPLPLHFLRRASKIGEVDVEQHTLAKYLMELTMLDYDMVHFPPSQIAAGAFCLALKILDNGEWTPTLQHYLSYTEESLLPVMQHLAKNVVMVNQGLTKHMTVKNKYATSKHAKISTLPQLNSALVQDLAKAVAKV
Summary of the method: as §1

Compound	IC50 (cyclin E/CDK2 enzyme) [µM]	IC50 (HCT-116) [µM]	IC50 (MCF-7) [µM]	IC50 (cyclin D1/cdk 4 enzyme) [nM]	IC50 (LoVo) [µM]	IC50 (BT474) [µM]	IC50 (cyclin B/CDK1 enzyme) [µM]
NS(=O)(=O)c1ccc(CNC=C2C(=O)NC(=O)c3ccc(-c4ccc[nH]4)cc32)cc1 [Example 638, 4-({[1,3-Dioxo-6-(1H-pyrrol-2-yl)-2,3-dihydro-1H-isoquinolin-4-ylidenemethyl]-amino}-methyl)-benzenesulfonamide]	6	> 50	> 50	50	> 50	35.9	17.3
NS(=O)(=O)c1ccc(CNC=C2C(=O)NC(=O)c3ccc(-c4cc[nH]c4)cc32)cc1 [Example 639, 4-({[1,3-Dioxo-6-(1H-pyrrol-3-yl)-2,3-dihydro-1H-isoquinolin-4-ylidenemethyl]-amino}-methyl)-benzenesulfonamide]	19.7	> 50	25.8	9200	> 50	18.7	> 50
O=C1NC(=O)c2ccc(-c3ccc4ccccc4c3)cc2C1=CNCc1ccc(O)c(O)c1 [Example 641, 4-[(3,4-Dihydroxy-benzylamino)-methylene]-6-naphthalen-2-yl-4H-isoquinoline-1,3-dione]	> 50	10.5	9.6	1900	9.4	19.7	> 50
O=C1NC(=O)c2ccc(-c3cccc4cccnc34)cc2C1=CNCc1ccc(O)c(O)c1 [Example 642, 4-[(3,4-Dihydroxy-benzylamino)-methylene]-6-quinolin-8-yl-4H-isoquinoline-1,3-dione]	28.3	20.5	12.7	1000	12.1	14.2	> 50
O=C1NC(=O)c2ccc(-c3cc4ccccc4s3)cc2C1=CNCc1ccc(O)c(O)c1 [Example 644, 6-Benzo[b]thiophen-2-yl-4-[(3,4-dihydroxy-benzylamino)-methylene]-4H-isoquinoline-1,3-dione]	> 50	14.1	6.3	2000	19.1	17.9	> 50
O=C1NC(=O)c2ccc(-c3ccc4[nH]ccc4c3)cc2C1=CNCc1ccc(O)c(O)c1 [Example 646, 4-[(3,4-Dihydroxy-benzylamino)-methylene]-6-(1H-indol-5-yl)-4H-isoquinoline-1,3-dione]	2.9	8.4	7.7	40	10.7	11.9	13.5
O=C1NC(=O)c2ccc(-c3ccc[nH]3)cc2C1=CNCc1ccc(O)c(O)c1 [Example 647, 4-[(3,4-Dihydroxy-benzylamino)-methylene]-6-(1H-pyrrol-2-yl)-4H-isoquinoline-1,3-dione]	2.6	15.3	19.5	< 5	9.5	18.3	8.6
NS(=O)(=O)c1ccc(CNC=C2C(=O)NC(=O)c3ccc(C=Cc4cnccn4)cc32)cc1 [Example 655, 4-({[1,3-Dioxo-6-(2-pyrazin-2-yl-vinyl)-2,3-dihydro-1H-isoquinolin-4-ylidenemethyl]-amino}-methyl)-benzenesulfonamide]	11	1.2	7.7	570	7.6	2	23.6
Cc1ncsc1C=Cc1ccc2c(c1)C(=CNCc1ccc(S(N)(=O)=O)cc1)C(=O)NC2=O [Example 659, 4-[({6-[2-(4-Methyl-thiazol-5-yl)-vinyl]-1,3-dioxo-2,3-dihydro-1H-isoquinolin-4-ylidenemethyl}-amino)-methyl]-benzenesulfonamide]	18	26	40.9	440	> 50	23.1	> 50
O=C1NC(=O)c2ccc(C=CCc3ccccc3)cc2C1=CNCc1ccc(O)c(O)c1 [Example 660, 4-[(3,4-Dihydroxy-benzylamino)-methylene]-6-(3-phenyl-propenyl)-4H-isoquinoline-1,3-dione]	33.9	7	6.1	2480	7.6	10.4	> 50
O=C1NC(=O)c2ccc(C=Cc3ccccn3)cc2C1=CNCc1ccc(O)c(O)c1 [Example 662, 4-[(3,4-Dihydroxy-benzylamino)-methylene]-6-(2-pyridin-2-yl-vinyl)-4H-isoquinoline-1,3-dione]	> 50	> 50	30.6	170	> 50	35.8	> 50
O=C1NC(=O)c2ccc(C=CC3CCCCC3)cc2C1=CNCc1ccc(O)c(O)c1 [Example 664, 6-(2-Cyclohexyl-vinyl)-4-[(3,4-dihydroxy-benzylamino)-methylene]-4H-isoquinoline-1,3-dione]	31.7	6.7	4.8	220	6	9.3	> 50
O=C1NC(=O)c2ccc(C=CCn3ccnc3)cc2C1=CNCc1ccc(O)c(O)c1 [Example 665, 4-[(3,4-Dihydroxy-benzylamino)-methylene]-6-(3-imidazol-1-yl-propenyl)-4H-isoquinoline-1,3-dione]	8.2	46.8	13	160	> 50	28.9	42.5
O=C1NC(=O)c2ccc(C=Cn3ccnc3)cc2C1=CNCc1ccc(O)c(O)c1 [Example 667, 4-[(3,4-Dihydroxy-benzylamino)-methylene]-6-(2-imidazol-1-yl-vinyl)-4H-isoquinoline-1,3-dione]	4	> 50	12.4	10	29.4	> 50	> 50
CN1CCN(c2ccc(NC=C3C(=O)NC(=O)c4ccc(-c5ccc6[nH]ccc6c5)cc43)cc2)CC1 [Example 671, 6-(1H-Indol-5-yl)-4-{[4-(4-methyl-piperazin-1-yl)-phenylamino]-methylene}-4H-isoquinoline-1,3-dione]	38	2.3	4.4	2000	4.1	2.8	11.8
CN1CCN(c2ccc(NC=C3C(=O)NC(=O)c4ccc(-c5ccc[nH]5)cc43)cc2)CC1 [Example 672, 4-{[4-(4-Methyl-piperazin-1-yl)-phenylamino]-methylene}-6-(1H-pyrrol-2-yl)-4H-isoquinoline-1,3-dione]	> 50	3.4	3.2	640	2.9	7.9	> 50
CN1CCN(c2ccc(NC=C3C(=O)NC(=O)c4ccc(-c5cc[nH]c5)cc43)cc2)CC1 [Example 673, 4-{[4-(4-Methyl-piperazin-1-yl)-phenylamino]-methylene}-6-(1H-pyrrol-3-yl)-4H-isoquinoline-1,3-dione]	> 50	3	5.8	1000	5	8.5	> 50
